From patent publication US20260248949A1, “COMPOSITION AND METHOD” (Optimus Salvus Limited, priority 2022, published 2026)

Settings: fasted subjects, 100 mg CBD equivalent by mouth, 1 hour post ingestion
Experimental: Fasted subjects were administered either a single cannabidiol capsule (100 mg cannabidiol) or two cannabidiol/cyclodextrin capsules (total 100 mg cannabidiol equivalent) by mouth. The capsules were taken with a standard glass of water. Capillary blood was drawn one hour after ingestion and the quantity of cannabidiol and cannabidiol metabolites in blood analysed by a certified laboratory.

C=C(C)[C@@H]1CCC(C)=C[C@H]1c1c(O)cc(CCCCC)cc1O [Plain CBD, cannabidiol]
Concentration of CBD in capillary blood: 11.52 ng/mL
Concentration of CBD-COOH in capillary blood: 13.14 ng/mL
Concentration of CBD-OH in capillary blood: 1.85 ng/mL
Concentration, Total (CBD and metabolites) in capillary blood: 26.77 ng/mL
